Experimental data taken from US20050137182A1, “Novel crystalline form of cefdinir” (priority 2003, published 2005).
Several values for one entry are separate records, joined by “and”; a condition that tells them apart may be missing. Identical values can stand only once. Entries after “also recorded” stand apart in the source; their conditions may differ. Values belong to the compound of their own block, whether it stands above or below them.

Key:
Format in all cases: physicochemical
[1] = Accelerated storage stability, 40° C. ± 2° C./75% RH ± 5% RH; conditions: for Assay (% w/w, by HPLC OAB), % change / Total RS (% area normalization, by HPLC) / Assay (% w/w, by HPLC OAB): accelerated 40° C. ± 2° C./75% RH ± 5% RH
[2] = Real time storage stability, 25° C. ± 2° C./60% RH ± 5% RH; conditions: for Assay (% w/w, by HPLC OAB), % change / Total RS (% area normalization, by HPLC) / Assay (% w/w, by HPLC OAB): real time 25° C. ± 2° C./60% RH ± 5% RH
[3] = Stress stability study, HPLC purity and assay before and after; conditions: 60° C.±2° C. for 15 days
Method: Stress stability studies of cefdinir crystal B were performed by keeping samples of cefdinir crystal B under the conditions of 60° C.±2° C. for 15 days, and the purity and assay of the samples were determined before and after the stress test by high performance liquid chromatography. […] Table 3 summaries the results of the stress test studies.

[4] = 1 Month, listed as Crystal B Sample 1
[5] = 2 Months, listed as Crystal B Sample 1
[6] = 2 Months, listed as Crystal B Sample 2
[7] = 3 Months, listed as Crystal B Sample 1
[8] = 3 Months, listed as Crystal B Sample 2
[9] = Initial, listed as Crystal B Sample 1
[10] = Initial, listed as Crystal B Sample 2

Assay (% w/w, by HPLC OAB), % change ([1]; 1 Month): −0.5%
Total RS (% area normalization, by HPLC) ([1]; 1 Month): 1.98 % area
Assay (% w/w, by HPLC OAB), % change ([1]; 2 Months): −1.6%
Total RS (% area normalization, by HPLC) ([1]; 2 Months): 2.25 % area
Assay (% w/w, by HPLC OAB), % change ([1]; 3 Months): −1.8%
Total RS (% area normalization, by HPLC) ([1]; 3 Months): 2.06 % area
Assay (% w/w, by HPLC OAB) ([1]; Initial): 96.3 % w/w
Total RS (% area normalization, by HPLC) ([1]; Initial): 0.82 % area
Change in the assay ([1]; after 3 months under accelerated storage conditions): about 1.8%
Assay (% w/w, by HPLC OAB), % change ([2]; 3 Months): −0.2%
Total RS (% area normalization, by HPLC) ([2]; 3 Months): 1.18 % area
Stability under normal storage conditions compared with the other crystal form (in words) ([2]; 25° C.±2° C./60% RH±5% RH, 3 months): as stable as crystal B
Assay (% w/w, by HPLC OAB) ([2]; Initial): 96.3 % w/w
Total RS (% area normalization, by HPLC) ([2]; Initial): 0.82 % area
SMILES: C=CC1=C(C(=O)O)N2C(=O)[C@@H](NC(=O)/C(=N\O)c3csc(N)n3)[C@H]2SC1 [Cefdinir Crystal A, 7β-[(Z)-2-(2-amino-4-thiazolyl)-2-hydroxyiminoacetamido]-3-vinyl-3-cephem-4-carboxylic acid, reference compound]

Assay (% w/w, by HPLC OAB), % change [1, 4]: 0.0%
Total RS (% area normalization, by HPLC) [1, 4]: 0.72 % area
Total RS (% area normalization, by HPLC) ([1]; 1 Month, listed as Crystal B Sample 2): 0.70 % area
Assay (% w/w, by HPLC OAB), % change [1, 5]: 0.0%
Total RS (% area normalization, by HPLC) [1, 5]: 1.10 % area
Assay (% w/w, by HPLC OAB), % change [1, 6]: 0.0%
Total RS (% area normalization, by HPLC) [1, 6]: 0.92 % area
Assay (% w/w, by HPLC OAB), % change [1, 7]: −0.1%
Total RS (% area normalization, by HPLC) [1, 7]: 0.90 % area
Assay (% w/w, by HPLC OAB), % change [1, 8]: −0.2%
Total RS (% area normalization, by HPLC) [1, 8]: 1.08 % area
Assay (% w/w, by HPLC OAB) [1, 9]: 99.9 % w/w
Total RS (% area normalization, by HPLC) [1, 9]: 0.64 % area
Assay (% w/w, by HPLC OAB) [1, 10]: 99.4 % w/w
Total RS (% area normalization, by HPLC) [1, 10]: 0.59 % area
Amount of compound that degrades ([1]; over a period of at least 3 months under accelerated storage conditions): ≤ 0.5%
Assay (% w/w, by HPLC OAB), % change [2, 7]: 0.0%
Total RS (% area normalization, by HPLC) [2, 7]: 0.53 % area
Assay (% w/w, by HPLC OAB), % change [2, 8]: 0.0%
Total RS (% area normalization, by HPLC) [2, 8]: 0.61 % area
Assay (% w/w, by HPLC OAB) [2, 9]: 99.9 % w/w
Total RS (% area normalization, by HPLC) [2, 9]: 0.64 % area
Assay (% w/w, by HPLC OAB) [2, 10]: 99.4 % w/w
Total RS (% area normalization, by HPLC) [2, 10]: 0.59 % area
Assay (by HPLC on anhydrous basis, % change) [3]: 0%
Degradation in stress test (in words) [3]: did not degrade
Purity (by HPLC, % change) [3]: −0.21% and −0.33%
SMILES: C=CC1=C(C(=O)O)N2C(=O)[C@@H](NC(=O)/C(=N\O)c3csc(N)n3)[C@H]2SC1 [Cefdinir Crystal B, 7β-[(Z)-2-(2-amino-4-thiazolyl)-2-hydroxyiminoacetamido]-3-vinyl-3-cephem-4-carboxylic acid]
Stability under accelerated storage conditions compared with the other crystal form (in words) ([1]; about 40° C., about 75% RH, up to 3 months): increased storage stability; also recorded: superior stability
